Assay results from the supplement of paper PMC4862054.

What follows are compounds tested on CAL-85-1 (assay: normalised response (% of control), CellTiter-Glo; higher = more viable cells (100 = DMSO, 0 = benzethonium chloride kill control)). Details: incubation time: 72 h.
How it was run: (§1)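 Breast cancer cell lines were exposed for 72 h in 384-well plates to compound at 5 concentrations, 10-fold apart, covering a 10,000-fold range fixed for each compound. Plates were read for CellTox Green fluorescence and CellTiter-Glo luminescence and normalised to 0.1 % DMSO (100) and a positive kill control (0). Each value is the normalised signal at one concentration of the series.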
O=C(Cc1ccc(-c2ccc(OCCN3CCOCC3)cc2)cn1)NCc1ccccc1 [KX2-391] (10000 nM) gave a normalised response of 56.5%. CC[C@@H]1C(=O)N(C)c2cnc(Nc3ccc(C(=O)NC4CCN(C)CC4)cc3OC)nc2N1C1CCCC1 [BI 2536] (1000 nM) gave a normalised response of 44.7%. In the case of Nc1ccccc1NC(=O)c1ccc(CNC(=O)OCc2cccnc2)cc1 [Entinostat] (10000 nM), the normalised response is reported as 41.7%. Cc1cnc(NC(=O)Nc2cc(Br)c(C)cc2OC[C@@H]2CNCCO2)cn1 [Rabusertib] (1000 nM) gave a normalised response of 87.8%. For N#Cc1ccc(C(c2ccc(C#N)cc2)n2cncn2)cc1 [Letrozole] (10000 nM), the normalised response was 97.8%. In the case of Nc1ncn([C@H]2C[C@H](O)[C@@H](CO)O2)c(=O)n1 [Decitabine] (10000 nM), the normalised response is reported as 84.5%. Compound CC[C@H](Nc1ncnc2[nH]cnc12)c1nc2cccc(F)c2c(=O)n1-c1ccccc1 [GS-1101] (10000 nM) has a normalised response of 93.1%. With CC1=C(/C=C/C(C)=C/C=C/C(C)=C/C(=O)O)C(C)(C)CCC1 [Tretinoin] (10000 nM) the normalised response was 56.5%. COc1cc([C@@H]2c3cc4c(cc3[C@@H](O[C@@H]3O[C@@H]5CO[C@@H](c6cccs6)O[C@H]5[C@H](O)[C@H]3O)[C@H]3COC(=O)[C@H]23)OCO4)cc(OC)c1O [Teniposide] (10000 nM) showed a normalised response of 8.03%.

Each compound was assayed on HDQ-P1 in the same assay as above. Details: incubation time: 72 h.
How it was run: as §1
In the case of O=C(Cc1ccc(-c2ccc(OCCN3CCOCC3)cc2)cn1)NCc1ccccc1 [KX2-391] (10000 nM), the normalised response is reported as 73.8%. Work on CC[C@@H]1C(=O)N(C)c2cnc(Nc3ccc(C(=O)NC4CCN(C)CC4)cc3OC)nc2N1C1CCCC1 [BI 2536] (1000 nM) yielded a normalised response of 66.6%. In the case of Nc1ccccc1NC(=O)c1ccc(CNC(=O)OCc2cccnc2)cc1 [Entinostat] (10000 nM), the normalised response is reported as 73.2%. Cc1cnc(NC(=O)Nc2cc(Br)c(C)cc2OC[C@@H]2CNCCO2)cn1 [Rabusertib] (1000 nM) gave a normalised response of 100%. Work on N#Cc1ccc(C(c2ccc(C#N)cc2)n2cncn2)cc1 [Letrozole] (10000 nM) yielded a normalised response of 103%. Nc1ncn([C@H]2C[C@H](O)[C@@H](CO)O2)c(=O)n1 [Decitabine] (10000 nM) gave a normalised response of 87.8%. CC[C@H](Nc1ncnc2[nH]cnc12)c1nc2cccc(F)c2c(=O)n1-c1ccccc1 [GS-1101] (10000 nM) was tested, and the normalised response was 71.7%. CC1=C(/C=C/C(C)=C/C=C/C(C)=C/C(=O)O)C(C)(C)CCC1 [Tretinoin] (10000 nM) was tested, and the normalised response was 90%. With COc1cc([C@@H]2c3cc4c(cc3[C@@H](O[C@@H]3O[C@@H]5CO[C@@H](c6cccs6)O[C@H]5[C@H](O)[C@H]3O)[C@H]3COC(=O)[C@H]23)OCO4)cc(OC)c1O [Teniposide] (10000 nM) the normalised response was 34.3%.

What follows are compounds tested on MFM-223 in the same assay as above. Details: incubation time: 72 h.
How it was run: as §1
O=C(Cc1ccc(-c2ccc(OCCN3CCOCC3)cc2)cn1)NCc1ccccc1 [KX2-391] (10000 nM) was tested, and the normalised response was 34.5%. CC[C@@H]1C(=O)N(C)c2cnc(Nc3ccc(C(=O)NC4CCN(C)CC4)cc3OC)nc2N1C1CCCC1 [BI 2536] (1000 nM) was tested, and the normalised response was 55.6%. For Nc1ccccc1NC(=O)c1ccc(CNC(=O)OCc2cccnc2)cc1 [Entinostat] (10000 nM), the normalised response was 18%. Cc1cnc(NC(=O)Nc2cc(Br)c(C)cc2OC[C@@H]2CNCCO2)cn1 [Rabusertib] (1000 nM) was tested, and the normalised response was 98.2%. In the case of N#Cc1ccc(C(c2ccc(C#N)cc2)n2cncn2)cc1 [Letrozole] (10000 nM), the normalised response is reported as 99.8%. Nc1ncn([C@H]2C[C@H](O)[C@@H](CO)O2)c(=O)n1 [Decitabine] (10000 nM) showed a normalised response of 93.3%. CC[C@H](Nc1ncnc2[nH]cnc12)c1nc2cccc(F)c2c(=O)n1-c1ccccc1 [GS-1101] (10000 nM) was tested, and the normalised response was 77%. Work on CC1=C(/C=C/C(C)=C/C=C/C(C)=C/C(=O)O)C(C)(C)CCC1 [Tretinoin] (10000 nM) yielded a normalised response of 78.9%. COc1cc([C@@H]2c3cc4c(cc3[C@@H](O[C@@H]3O[C@@H]5CO[C@@H](c6cccs6)O[C@H]5[C@H](O)[C@H]3O)[C@H]3COC(=O)[C@H]23)OCO4)cc(OC)c1O [Teniposide] (10000 nM) showed a normalised response of 12.9%.

What follows are compounds tested on BT-474 in the same assay as above. Details: incubation time: 72 h.
How it was run: as §1
O=C(Cc1ccc(-c2ccc(OCCN3CCOCC3)cc2)cn1)NCc1ccccc1 [KX2-391] (10000 nM) gave a normalised response of 52%. CC[C@@H]1C(=O)N(C)c2cnc(Nc3ccc(C(=O)NC4CCN(C)CC4)cc3OC)nc2N1C1CCCC1 [BI 2536] (1000 nM) was tested, and the normalised response was 75.9%. Nc1ccccc1NC(=O)c1ccc(CNC(=O)OCc2cccnc2)cc1 [Entinostat] (10000 nM) gave a normalised response of 42%. For Cc1cnc(NC(=O)Nc2cc(Br)c(C)cc2OC[C@@H]2CNCCO2)cn1 [Rabusertib] (1000 nM), the normalised response was 100%. Compound N#Cc1ccc(C(c2ccc(C#N)cc2)n2cncn2)cc1 [Letrozole] (10000 nM) has a normalised response of 91.7%. Nc1ncn([C@H]2C[C@H](O)[C@@H](CO)O2)c(=O)n1 [Decitabine] (10000 nM) gave a normalised response of 87.4%. With CC[C@H](Nc1ncnc2[nH]cnc12)c1nc2cccc(F)c2c(=O)n1-c1ccccc1 [GS-1101] (10000 nM) the normalised response was 71.4%. CC1=C(/C=C/C(C)=C/C=C/C(C)=C/C(=O)O)C(C)(C)CCC1 [Tretinoin] (10000 nM) gave a normalised response of 62.2%. Work on COc1cc([C@@H]2c3cc4c(cc3[C@@H](O[C@@H]3O[C@@H]5CO[C@@H](c6cccs6)O[C@H]5[C@H](O)[C@H]3O)[C@H]3COC(=O)[C@H]23)OCO4)cc(OC)c1O [Teniposide] (10000 nM) yielded a normalised response of 9.52%.

The compounds below were run on MDA-MB-453 in the same assay as above. Details: incubation time: 72 h.
How it was run: as §1
O=C(Cc1ccc(-c2ccc(OCCN3CCOCC3)cc2)cn1)NCc1ccccc1 [KX2-391] (10000 nM) gave a normalised response of 61.2%. With CC[C@@H]1C(=O)N(C)c2cnc(Nc3ccc(C(=O)NC4CCN(C)CC4)cc3OC)nc2N1C1CCCC1 [BI 2536] (1000 nM) the normalised response was 58.9%. Nc1ccccc1NC(=O)c1ccc(CNC(=O)OCc2cccnc2)cc1 [Entinostat] (10000 nM) showed a normalised response of 21.6%. For Cc1cnc(NC(=O)Nc2cc(Br)c(C)cc2OC[C@@H]2CNCCO2)cn1 [Rabusertib] (1000 nM), the normalised response was 77.2%. Compound N#Cc1ccc(C(c2ccc(C#N)cc2)n2cncn2)cc1 [Letrozole] (10000 nM) has a normalised response of 96.8%. With Nc1ncn([C@H]2C[C@H](O)[C@@H](CO)O2)c(=O)n1 [Decitabine] (10000 nM) the normalised response was 97.7%.
